Values quoted from earlier work, collected in patent publication US10292931B2, “Stable liquid pharmaceutical composition based on trazodone” (AZIENDE CHIMICHE RIUNITE ANGELINI FRANCESCO A.C.R.A.F. …, priority 2007, dated 2019).
Counter-ions that a name gives are not always drawn. Like-named read-outs stand apart in the source and are kept apart here.

How the values were obtained:
[1] = room temperature
[2] = 1% (w/v) aqueous solution

SMILES: O=c1n(CCCN2CCN(c3cccc(Cl)c3)CC2)nc2ccccn12 [trazodone hydrochloride]
- solubility ([1]; 95% ethanol): 1.6 g/100 ml
- solubility ([1]; benzene): practically insoluble
- solubility ([1]; chloroform): 3.6 g/100 ml
- solubility ([1]; ethyl ether): practically insoluble
- solubility ([1]; methanol): 2.5 g/100 ml
- solubility ([1]; octanol): less than 0.1 g/100 ml
- solubility ([1]; olive oil): less than 0.1 g/100 ml
- solubility ([1]; water): 1.8 g/100 ml
- pH of aqueous solution [2]: approx. 3.90
